# Entries after “also recorded” stand apart in the source; their conditions may differ.
# Assays:
# [1] = system: CD44v3 (CD44v3-His, whole cell extracts of COS-7 cells expressing CD44v3); experiment: MST binding of NGF, TrkA or FGF to CD44v3; conditions: whole cell extracts of COS-7 expressing CD44v3, NGF alone, TrkA alone or FGF control
# Protocol: MST was conducted using an NT.115 A Pico MST instrument (Nano Temper Technologies GmbH) equipped with red and blue filter sets. The TrkA-His tagged extracellular domain protein (Ala 34-Gly423) (9966-TK-050; R&D Systems, United Kingdom), diluted to 200 nM in PBS-T buffer (supplied by the vendor), was labeled using a Monolith His-Tag Labeling Kit with RED-Tris-NTA (Nano Temper). The RED-Tris-NTA dye was diluted in PBS-T to 100 nM. The mix was incubated at RT in the dark for 30 min. Next, an extract expressing CD44v3-labeled protein (CD44v3-His) and ligand and/or TrkA was mixed at a 1:1 ratio and incubated at RT in the dark for 15 min. For the binding check, peptides and TrkA-His were used. Capillaries were filled individually and loaded into the instrument. The data were acquired using high MST power and 100% LED. The data were analyzed using MO Control Software (Nano Temper).
# Fig. 1 The C-terminal region of CD44 variant 3 binds to TrkA. A Schematic representation of the CD44 gene and protein structure. Alternative splicing leads to the expression of CD44 variants, thus the insertion of exon 8 leads to the expression of a CD44 protein containing variant 3 (CD44v3) and the insertion of exon 11 leads to the expression of a CD44 containing variant 6 (CD44v6) (B) TrkA/CD44v3 complex formation in COS-7 cells expressing TrkA and CD44v3 was detected by the proximity ligation assay (PLA), which was performed 0, 5 and 30 min after the initiation of NGF (100 ng/ml) treatment. The images represent signals detected by PLA. Quantification of the red spots was performed by ImageJ software (30 randomly chosen fields per condition of three different experiments). Statistical analyses were performed using one-way ANOVA followed by Bonferroni’s posttest. Error bars represent the standard error of the mean (S.E.M.); *** p < 0.001. ns, nonsignificant. C NGF and/or TrkA binding to CD44v3 was measured by microscale thermophoresis (MST). MST experiments were performed on whole cell extracts of COS-7 cells expressing CD44v3. […]
# [2] = system: TrkA/CD44v3 complex in SUM159-PT cells; experiment: PLA TrkA/CD44v3 complex formation in SUM159-PT cells; assay type: cell-based; conditions: triple negative; NGF 100 ng/ml
# Protocol: Cells (10,000 cells per well) were grown on acid-washed eight-well glass slides (Thermo Scientific) in the appropriate medium supplemented with 10% FBS for 24 h. After NGF treatment, paraformaldehyde (PAF)-fixed cells were incubated with 4% bovine serum albumin (BSA) or 5% FBS (for 1 h at 20 °C), followed by overnight incubation with primary antibodies (rabbit anti-TrkA or rabbit anti-IgG + mouse anti-pan-CD44; mouse anti-CD44v3; mouse anti-CD44v6; mouse anti-IgG2a; mouse anti-IgG2b; or mouse anti-IgG1). PLA was performed following the manufacturer’s instructions in the assay kit (Duolink PLA; Sigma–Aldrich). To obtain the correct representation of the PLA signal for each condition, 30 fields per condition were observed using a fluorescence microscope (Eclipse TiU; Nikon, Japan). The PLA signals (red dots) were automatically quantified using ImageJ software (with an in-house-developed plug-in). […]
# Fig. 7 The TrkA/CD44v3 complex is formed in PR-negative breast cancer cells and tumors. TrkA/CD44v3 complex formation was measured in SUM159-PT (triple negative—i.e., ERα-, PR-, and Her2-) cells (A), T47-D (luminal A—i.e., ERα+, PR+, and Her2-) cells (B), BT-474 (luminal B—ERα+, PR+, and Her2+) cells (C), HCC-1954 (Her2-like—ERα-, PR-, and Her2+) cells (D), and 150 tumor patient samples obtained from US BioMax (HBre-Duc150Sur01) (E, F) using the proximity ligation assay (PLA). […]
substance,measurement,setting,value
"NGF: recombinant human β-NGF (Alomone Labs, Israel)",binding to CD44v3 (in words),[1],No binding; also recorded: NGF did not bind to CD44v3; also recorded: NGF does not bind to CD44v3
same,effect on TrkA/CD44v3 complex formation (PLA) in SUM159-PT cells,[2],NGF induction of CD44v3/TrkA complex formation was observed in SUM-159PT (TN) and HCC-1954 (Her2) cells

# Source: publication PMC8962522, “Direct interaction of TrkA/CD44v3 is essential for NGF-promoted aggressiveness of breast cancer cells” (Journal of Experimental & Clinical Cancer Research : CR, 2022)
